Measured values: patent US6652479B2, “Method and apparatus for transcutaneous infusion of carbon dioxide for local relief of pain and other ailments” (Capnia, Inc., priority 2000, dated 2003)

Key:
allergic rhinitis attack = test: treatment of allergic rhinitis by carbonated water nasal spray; assay type: in vivo, human; conditions: carbonated water spray and gaseous CO2 infusion used alternately over a day, one subject
Description: Because of the observed similarity of the physiological effects of gaseous CO2 and a […] solution (carbonated water) applied to the skin, the inventors believed that a […] solution might be effective for treatment of upper respiratory indications for which infusion of gaseous CO2 is effective. With reference to FIG. 5, to test this hypothesis, a 70-ml commercially marketed plastic “squeeze” bottle 510 for dispensing a physiological saline spray was 3⁄4 filled with fresh effervescing carbonated water. The carbonated water spray was then sprayed into the nose of a subject 520 who was suffering a mild allergic rhinitis attack. […] During the course of a day as allergic rhinitis attacks reoccurred, the carbonated water spray and gaseous CO2 infusion were used alternately and their relative effectiveness assessed. […] The disagreeable aspects cited were the discomfort associated with a liquid being sprayed up the nose and the messiness of the effluent liquid from the nose after the spray. Nevertheless, the carbonated nasal spray is a distinct alternative for treatment of the upper respiratory distress indications, and shares many of the advantages of a gaseous CO2 infusion treatment including effectiveness, ease of use, rapid relief on demand, unlimited dose, low cost, and freedom from aftereffects and other contraindications associated with the use of drugs. […]

[1] = tested on: muscular-skeletal pain conditions (cervico-cranial syndrome, cervico-brachial syndrome, lumbalgia); conditions: cited from earlier work
[2] = tested on: skin on the right anterior thigh; test: rate of transcutaneous absorption of gaseous CO2 into a human body (funnel on wet skin); assay type: in vivo
Method: To determine the inherent rate of absorption and diffusion of CO2 in a “passive” aqueous medium a preliminary in vitro experiment was performed. The apparatus and method employed for measuring the rate of CO2 absorption by a surface is illustrated in FIG. 1. The device was placed on a table top 150, and comprised a source of CO2 in the form of a cylinder 101 and a flow regulator 110, including a pressure regulator 112 and flow meter 113. Polyethylene tubing 115 of approximately 0.2 cm^2 lumen connected the cylinder 101 to a glass funnel 120 having a maximum area of 80 cm^2. An additional length of tubing 125 was used for measurement of changes in gas volume. This gas volume measurement means used in the experiment could be eliminated in a device intended to administer CO2 to a patient's skin surface. The entire system was purged of air by prolonged CO2 flow. The additional length of tubing 125 was purged first, then a bolus of low-volatility (forepump) oil 130 was inserted into its open end and the end plugged. The funnel 120 was then purged with its open end resting on a portion of the selected test surface 140 immediately adjacent to the portion to be tested, and with the purge flow escaping at its edge. At zero time the purge flow was terminated, the plug in the tube 125 end was removed and the funnel was slid onto the test portion of the surface without breaking the seal between the funnel edge and the wet surface. The displacement of the oil bolus 130 within the 0.20 cm^2 lumen of the tube 125 was then observed as CO2 gas was removed from the closed system via absorption in the surface 140; i.e., each cm of displacement corresponded to absorption of 0.20 cc of gas by 80 cm^2 of test surface.
An area of skin on the right anterior thigh sufficiently large for two positions of the funnel 120 applicator was washed thoroughly and soaked with water for fifteen minutes. The funnel 120 was purged of air by prolonged CO2 flow (for about 10 minutes) while seated on the wet skin in the upper thigh position 160, and then was slid to the lower thigh position 170 at zero time. […] In other words, it appeared that less than <0.1 ml of gas was absorbed. […] Therefore, the inventors concluded that some quantity of CO2, sufficient to cause the observed vascular effects, must have diffused into the skin. Therefore, the inventors continued with their experiments to determine if a transcutaneous application of CO2 would reduce local pain.

[3] = in vitro rate of CO2 absorption by water-soaked paper towel (funnel / oil bolus apparatus); assay type: physicochemical; conditions: 80-cm^2 area test surface, several tests
Method: To determine the inherent rate of absorption and diffusion of CO2 in a “passive” aqueous medium a preliminary in vitro experiment was performed. The apparatus and method employed for measuring the rate of CO2 absorption by a surface is illustrated in FIG. 1. The device was placed on a table top 150, and comprised a source of CO2 in the form of a cylinder 101 and a flow regulator 110, including a pressure regulator 112 and flow meter 113. Polyethylene tubing 115 of approximately 0.2 cm^2 lumen connected the cylinder 101 to a glass funnel 120 having a maximum area of 80 cm^2. An additional length of tubing 125 was used for measurement of changes in gas volume. This gas volume measurement means used in the experiment could be eliminated in a device intended to administer CO2 to a patient's skin surface. The entire system was purged of air by prolonged CO2 flow. The additional length of tubing 125 was purged first, then a bolus of low-volatility (forepump) oil 130 was inserted into its open end and the end plugged. […]
Next, the funnel was placed on test surface 140 of a 0.4-mm thick water-soaked paper towel having about the same thickness as skin. […] The observed initial rate of absorption determined from several such tests fell in the range 0.6-1.2 ml/min, and saturation occurred at 4-10 ml, for the 80-cm^2 area test surface. […]

[4] = after subcutaneous injection of 100-200 ml CO2 gas
[5] = of 335 patients treated, 100-200 ml CO2 gas injected under the skin, 10-15 injections over 2-5 weeks

Structure (SMILES): O=C=O [CO2, carbon dioxide]
- relative effectiveness for relief and suppression of allergic rhinitis symptoms (allergic rhinitis attack): equally effective
- diameter of gas emphysemum at injection site [1, 4]: ~8 cm
- skin reaction at the injection site [1, 4]: mild hyperemia
- time for gas emphysemum and hyperemia to disappear after the injection [1, 4]: 3 to 5 min
- patients improved with some remaining distress [1, 5]: 157
- patients who became difficulty-free or were substantially improved [1, 5]: 171
- patients with no improvement [1, 5]: 7
- number of treatments after which improvement of the indicated disorder occurred ([1]; subcutaneous injection of 100-200 ml CO2 gas daily or twice-weekly): 4-5 treatments
- skin reaction over region in contact with CO2 ([2]; after about 10 minutes contact with gaseous CO2): a hyperemia was observed
- aftereffects ([2]; gaseous CO2 on wet skin): no observed aftereffects
- time for reddening to develop in contact with CO2 ([2]; gaseous CO2 on wet skin): three to five
- time for reddening to subside after removal of the CO2 ([2]; gaseous CO2 on wet skin): a similar period
- gas absorbed by the skin ([2]; wet skin, 80 cm^2 funnel, about 10 minutes, several tests): < 0.1 mL
- absorbed gas volume at saturation [3]: 4 to 10 mL
- initial rate of absorption of gaseous CO2 [3]: 0.6 to 1.2 mL/min
